Our source for the T/C values is PubChem BioAssay AID256 (DTP/NCI, 2004).

Toxic doses and inconclusive results are not listed.

The assay concerns CD2F1 mice, L1210 leukemia ip, survival T/C. Nature of the assay: NCI In Vivo Anticancer Drug Screen. Data for tumor model L1210 Leukemia (intraperitoneal) in CD2F1 (CDF1) mice. The note with it: higher = longer survival. In outline:
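Ratio T/C, where T is the treated-group value and C the vehicle-dosed control value, from mice implanted with a transplantable tumor.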

[1] abbreviates: endpoint: mean survival time, dose: 100.0 mg/kg/injection, schedule: Q04DX002 (ip), vehicle: saline with Tween-80.
Setting [2] is: endpoint: mean survival time, dose: 200.0 mg/kg/injection, schedule: Q04DX002 (ip), vehicle: saline with Tween-80.
Setting [3] is: endpoint: mean survival time, dose: 100.0 mg/kg/injection, schedule: Q04DX002 (ip), vehicle: saline.
[4] abbreviates: endpoint: mean survival time, dose: 200.0 mg/kg/injection, schedule: Q04DX002 (ip), vehicle: saline.
Setting [5] is: endpoint: mean survival time, dose: 100.0 mg/kg/injection, schedule: Q01DX001 (ip), vehicle: saline.
Setting [6] is: endpoint: mean survival time, dose: 200.0 mg/kg/injection, schedule: Q01DX001 (ip), vehicle: saline.
Setting [7] is: endpoint: mean survival time, dose: 400.0 mg/kg/injection, schedule: Q01DX001 (ip), vehicle: saline.
The mark [8] stands for this setting: endpoint: mean survival time, dose: 50.0 mg/kg/injection, schedule: Q01DX009 (ip), vehicle: saline with Tween-80.
The mark [9] stands for this setting: endpoint: mean survival time, dose: 100.0 mg/kg/injection, schedule: Q01DX009 (ip), vehicle: saline with Tween-80.
[10] abbreviates: endpoint: mean survival time, dose: 25.0 mg/kg/injection, schedule: Q01DX009 (ip), vehicle: saline with Tween-80.
Setting [11] is: endpoint: mean survival time, dose: 200.0 mg/kg/injection, schedule: Q01DX009 (ip), vehicle: saline with Tween-80.
The mark [12] stands for this setting: endpoint: mean survival time, dose: 400.0 mg/kg/injection, schedule: Q01DX009 (ip), vehicle: saline with Tween-80.

Turning to `O=C(CC(O)(C(F)(F)F)C(F)(F)F)c1ccc(C(=O)CC(O)(C(F)(F)F)C(F)(F)F)cc1`, the T/C is 105 % of control (endpoint: mean survival time, dose: 12.5 mg/kg/injection, schedule: Q01DX009 (ip), vehicle: other); 105 % of control (endpoint: mean survival time, dose: 25.0 mg/kg/injection, schedule: Q01DX009 (ip), vehicle: other); 113 % of control (endpoint: mean survival time, dose: 50.0 mg/kg/injection, schedule: Q01DX009 (ip), vehicle: other); 113 % of control (endpoint: mean survival time, dose: 100.0 mg/kg/injection, schedule: Q04DX003 (ip), vehicle: other); 105 % of control (endpoint: mean survival time, dose: 200.0 mg/kg/injection, schedule: Q04DX003 (ip), vehicle: other).
As for `O=C(COc1ccc(F)cc1F)OC(=O)Cc1ccc(Br)cc1`, the T/C is, setting by setting: under setting [1], 101 % of control; under setting [2], 105 % of control; (endpoint: mean survival time, dose: 400.0 mg/kg/injection, schedule: Q04DX002 (ip), vehicle: saline with Tween-80) 86 % of control.
For `Cc1ccc(S(=O)(=O)Cl)cc1`, the T/C reads like this: under setting [3], 91 % of control; under setting [4], 100 % of control.
Turning to `COc1cc(CC#N)ccc1C`, the T/C (endpoint: mean survival time, dose: 12.5 mg/kg/injection, schedule: Q04DX003 (ip), vehicle: acetone) is 97 % of control; the T/C (endpoint: mean survival time, dose: 25.0 mg/kg/injection, schedule: Q04DX003 (ip), vehicle: acetone) was 101 % of control; the T/C (endpoint: mean survival time, dose: 50.0 mg/kg/injection, schedule: Q04DX003 (ip), vehicle: acetone) is 102 % of control.
For the compound `CC(C)(C)OC(=O)NCCCCC(N)C(=O)OC(C)(C)C` (stereo not drawn), the T/C (endpoint: mean survival time, dose: 100.0 mg/kg/injection, schedule: Q04DX003 (ip), vehicle: saline) is 96 % of control and the T/C (endpoint: mean survival time, dose: 200.0 mg/kg/injection, schedule: Q04DX003 (ip), vehicle: saline) is 93 % of control.
For the compound `CCOC(=O)C(C#N)CC` (stereo not drawn), the T/C is, setting by setting: under setting [5], 98 % of control; under setting [6], 98 % of control; under setting [7], 107 % of control.
For the compound `BrN1CCCCC1`, the T/C is 103 % of control under setting [3]; 122 % of control under setting [4]; 103 % of control (endpoint: mean survival time, dose: 400.0 mg/kg/injection, schedule: Q04DX002 (ip), vehicle: saline).
As for `CN(C)C(=O)N(CCCl)N=O`, the T/C (endpoint: mean survival time, dose: 16.0 mg/kg/injection, schedule: Q01DX001 (ip), vehicle: other) is 176 % of control; the T/C (endpoint: mean survival time, dose: 20.0 mg/kg/injection, schedule: Q01DX001 (ip), vehicle: other) was 306 % of control; the T/C (endpoint: mean survival time, dose: 32.0 mg/kg/injection, schedule: Q01DX001 (ip), vehicle: other) is 570 % of control; the T/C (endpoint: mean survival time, dose: 40.0 mg/kg/injection, schedule: Q01DX001 (ip), vehicle: other) is 318 % of control.
Regarding `COc1cc(OC)c(NC(=O)Oc2ccc(NC(C)=O)cc2)cc1Cl`, the T/C was 88 % of control under setting [8] and 96 % of control under setting [9].
`CC1CCN(N=Nc2ccccc2-c2nc(N)c3ccccc3n2)CC1`: the T/C (endpoint: mean survival time, dose: 100.0 mg/kg/injection, schedule: Q04DX002 (ip), vehicle: Klucel (hydroxypropylcellulose) (HPC)) is 98 % of control; the T/C (endpoint: mean survival time, dose: 200.0 mg/kg/injection, schedule: Q04DX002 (ip), vehicle: Klucel (hydroxypropylcellulose) (HPC)) is 109 % of control; the T/C (endpoint: mean survival time, dose: 400.0 mg/kg/injection, schedule: Q04DX002 (ip), vehicle: Klucel (hydroxypropylcellulose) (HPC)) was 95 % of control.
For `CCOC(=O)c1cnc(NN)nc1Nc1cc(Cl)cc(Cl)c1`, the T/C (endpoint: mean survival time, dose: 6.25 mg/kg/injection, schedule: Q01DX009 (ip), vehicle: saline with Tween-80) is 94 % of control; the T/C (endpoint: mean survival time, dose: 12.5 mg/kg/injection, schedule: Q01DX009 (ip), vehicle: saline with Tween-80) was 86 % of control; the T/C (endpoint: mean survival time, dose: 12.5 mg/kg/injection, schedule: Q04DX003 (ip), vehicle: saline with Tween-80) is 89 % of control; the T/C under setting [10] is 95 % of control; the T/C (endpoint: mean survival time, dose: 25.0 mg/kg/injection, schedule: Q04DX003 (ip), vehicle: saline with Tween-80) is 89 % of control.
As to `CN(C)C(=O)N(c1ccccc1)c1ccccc1`, the T/C by setting is: under setting [1], 98 % of control; under setting [2], 90 % of control.
As for `CCCC/C=C\C(=O)OC`, the T/C runs as follows: under setting [8], 101 % of control; under setting [9], 104 % of control; under setting [11], 101 % of control.
For `CC1(C)CCCC2(C)CC/C(=N\NC(N)=O)C=C12` (stereo not drawn), the T/C is, setting by setting: under setting [9], 93 % of control; (endpoint: mean survival time, dose: 100.0 mg/kg/injection, schedule: Q04DX003 (ip), vehicle: saline with Tween-80) 95 % of control; under setting [11], 89 % of control; (endpoint: mean survival time, dose: 200.0 mg/kg/injection, schedule: Q04DX003 (ip), vehicle: saline with Tween-80) 96 % of control; under setting [12], 88 % of control; (endpoint: mean survival time, dose: 400.0 mg/kg/injection, schedule: Q04DX003 (ip), vehicle: saline with Tween-80) 96 % of control.
Consider `CC(C)(C)N1OC1c1ccccc1` (stereo not drawn), for which the T/C under setting [5] was 103 % of control, the T/C under setting [6] is 105 % of control and the T/C under setting [7] is 97 % of control.
In the case of `O=C(Nc1c(Oc2ccc(Cl)cc2)ccc(Cl)c1S(=O)(=O)O)Nc1c(Oc2ccc(Cl)c(Cl)c2)ccc(Cl)c1S(=O)(=O)O`, the T/C is, setting by setting: under setting [5], 93 % of control; under setting [6], 88 % of control.
With `COCCNC(=S)SCCN(C(C)C)C(C)C`, the T/C (endpoint: mean survival time, dose: 100.0 mg/kg/injection, schedule: Q01DX001 (sc), vehicle: olive oil, sesame oil, peanut oil) was 110 % of control.
With `O=C(Nc1nc2c(ccc3ccccc32)s1)Nc1ccccc1F`, the T/C is 94 % of control under setting [8], 97 % of control under setting [9] and 105 % of control under setting [11].
Turning to `CC(=O)Oc1cccc(C#N)c1`, the T/C reads like this: under setting [9], 100 % of control; under setting [11], 100 % of control; under setting [12], 96 % of control.
Turning to `CCCCN(C)CCNc1cc(C)nc(/N=C(\N)Nc2ccc(Cl)c(Cl)c2)n1`, for the setting “endpoint: mean survival time, dose: 75.0 mg/kg/injection, schedule: Q01DX001 (ip), vehicle: other”, the T/C was 97 % of control.
On to `Cc1cc(C)c(C(Cl)(Cl)Cl)c(C)c1Cl`, for which the T/C by setting is: under setting [10], 108 % of control; under setting [8], 111 % of control; (endpoint: mean survival time, dose: 100.0 mg/kg/injection, schedule: Q01DX001 (ip), vehicle: saline with Tween-80) 107 % of control.
`CCC1(O)C(=O)OCc2c1cc1n(c2=O)Cc2cc3ccc(N(C)C)cc3nc2-1` (stereo not drawn): the T/C is, setting by setting: (endpoint: median survival time, dose: 10.0 mg/kg/injection, schedule: Q04DX002 (ip), vehicle: saline with Tween-80) 103 % of control; (endpoint: median survival time, dose: 20.0 mg/kg/injection, schedule: Q04DX002 (ip), vehicle: saline with Tween-80) 106 % of control; (endpoint: median survival time, dose: 40.0 mg/kg/injection, schedule: Q04DX002 (ip), vehicle: saline with Tween-80) 106 % of control; (endpoint: median survival time, dose: 80.0 mg/kg/injection, schedule: Q04DX002 (ip), vehicle: saline with Tween-80) 112 % of control.
For the compound `CC1Cc2c([nH]c3ccc(Cl)cc23)CN1` (stereo not drawn), the T/C under setting [1] is 86 % of control and the T/C under setting [2] was 89 % of control.
Regarding `CC12CCC(O)CC1=CCC1C2CCC2(C)C1CCC21CCNP(=O)(N(CCCl)CCCl)O1` (stereo not drawn), the T/C is, setting by setting: (endpoint: mean survival time, dose: 62.5 mg/kg/injection, schedule: Q01DX001 (ip), vehicle: saline) 98 % of control; (endpoint: mean survival time, dose: 125.0 mg/kg/injection, schedule: Q01DX001 (ip), vehicle: saline) 101 % of control; (endpoint: mean survival time, dose: 250.0 mg/kg/injection, schedule: Q01DX001 (ip), vehicle: saline) 93 % of control; (endpoint: mean survival time, dose: 500.0 mg/kg/injection, schedule: Q01DX001 (ip), vehicle: saline) 97 % of control.
`CC(=O)OCC1OC(n2cnc3[nH]c(=S)[nH]c(=S)c32)C(OC(C)=O)C1OC(C)=O` (stereo not drawn): the T/C reads like this: under setting [5], 103 % of control; under setting [6], 96 % of control; under setting [7], 97 % of control.
For the compound `N#C/C=C/C#N`, the T/C is 105 % of control (endpoint: mean survival time, dose: 0.15 mg/kg/injection, schedule: Q01DX009 (ip), vehicle: saline); 102 % of control (endpoint: mean survival time, dose: 0.3 mg/kg/injection, schedule: Q01DX009 (ip), vehicle: saline); 102 % of control (endpoint: mean survival time, dose: 0.6 mg/kg/injection, schedule: Q01DX009 (ip), vehicle: saline).
Regarding `COC(=O)c1[nH]nc(-c2ccc(N)cc2)c1N`, the T/C is 114 % of control (endpoint: mean survival time, dose: 3.13 mg/kg/injection, schedule: Q01DX005 (ip), vehicle: other); 93 % of control (endpoint: mean survival time, dose: 6.25 mg/kg/injection, schedule: Q01DX005 (ip), vehicle: other); 107 % of control (endpoint: mean survival time, dose: 12.5 mg/kg/injection, schedule: Q01DX005 (ip), vehicle: other); 93 % of control (endpoint: mean survival time, dose: 25.0 mg/kg/injection, schedule: Q01DX005 (ip), vehicle: other); 93 % of control (endpoint: mean survival time, dose: 50.0 mg/kg/injection, schedule: Q01DX005 (ip), vehicle: other).
